In patent US6579881B2 (Eisai Co., Ltd., priority 1997, dated 2003) one finds Ki data, which are given here for 37 molecules.

One test concerns the target serotonin 2 receptor (Rattus norvegicus, UniProt P14842). The test can be described thus: Binding test on [3H] ketanserin (serotonin 2 receptor). Particulars: [3H] ketanserin 0.3 nM, receptor fraction of rat cerebral cortex; read-out: 5HT2.
The target of a further test is T1, serotonin 1A receptor (Rattus norvegicus, UniProt P19327).
T1 construct: To the receptor fraction of the hippocampus were added a test compound and 0.5 nM of [^3H]; 8-hydroxy-dipropylaminotetralin; from tissue; host or cells: SD rat hippocampus, membrane (receptor) fraction
T1 sequence (P19327 1-422): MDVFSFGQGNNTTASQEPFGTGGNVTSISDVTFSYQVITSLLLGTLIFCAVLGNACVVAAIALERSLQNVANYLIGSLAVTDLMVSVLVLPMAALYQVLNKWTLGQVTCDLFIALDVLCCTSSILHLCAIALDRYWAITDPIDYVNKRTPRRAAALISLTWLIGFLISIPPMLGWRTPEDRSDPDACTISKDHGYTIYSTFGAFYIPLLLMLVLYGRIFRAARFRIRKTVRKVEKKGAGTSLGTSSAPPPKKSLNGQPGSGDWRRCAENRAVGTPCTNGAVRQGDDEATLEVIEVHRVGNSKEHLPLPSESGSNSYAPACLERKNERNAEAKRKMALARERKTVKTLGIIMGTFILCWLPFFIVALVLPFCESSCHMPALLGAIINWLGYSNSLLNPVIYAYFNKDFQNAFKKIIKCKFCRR
The test is described as follows: Binding test on [3H] 8-hydroxy-dipropylaminotetralin (serotonin 1A receptor). Particulars: [3H] 8-OH-DPAT 0.5 nM, receptor fraction of rat hippocampus; read-out: 5HT1a.

pKi: −log10 of the molar value. Bounds are passed on as bounds.

serotonin 2 receptor, sequence (P14842 whole entry): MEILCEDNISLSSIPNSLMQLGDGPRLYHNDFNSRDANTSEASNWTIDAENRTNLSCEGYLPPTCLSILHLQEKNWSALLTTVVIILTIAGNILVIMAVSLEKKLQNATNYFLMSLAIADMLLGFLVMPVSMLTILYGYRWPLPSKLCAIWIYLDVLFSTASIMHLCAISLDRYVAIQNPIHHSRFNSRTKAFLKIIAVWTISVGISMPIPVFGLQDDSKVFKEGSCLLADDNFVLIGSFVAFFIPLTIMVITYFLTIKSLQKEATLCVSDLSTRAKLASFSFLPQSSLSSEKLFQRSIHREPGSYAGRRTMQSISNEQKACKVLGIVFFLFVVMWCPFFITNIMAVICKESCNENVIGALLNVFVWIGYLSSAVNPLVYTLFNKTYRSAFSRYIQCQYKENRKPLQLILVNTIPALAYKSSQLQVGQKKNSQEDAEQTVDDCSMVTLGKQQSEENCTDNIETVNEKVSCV
Protocol for serotonin 2 receptor: Use was made of SD rats aged 6 to 8 weeks.
The rats were sacrificed by dcapitation to extirpate the cerebra.
The hippocampus was mixed with 50 times (on the wet weight basis) as much a 0.32 M sucrose solution while the cortex was mixed with 10 times as much the same solution. Each mixture was homogenized by using a Teflon glass homogenizer and centrifuged at 1,000×g for 10 min. The supernatant thus obtained was further centrifuged at 20,000×g for 20 min. The obtained precipitate was re-suspended in 50 times (based on the intial wet weight; in the case of the hippocampus) or 10 times (in the case of the cortex) as much a 50 mM Tris hydrochloride (pH 7.4) and incubated at room temperature for 30 min. After centrifuging at 20,000×g for 20 min, the obtained precipitate was further suspended and centrifuged twice each in the same manner. The precipitate thus obtained was suspended in 100 times (based on the initial wet weight; in the case of the hippocampus) or 20 times (in the case of the cortex) as much a 50 mM Tris hydrochloride solution (pH 7.4) to thereby give a receptor fraction. This receptor fraction was stored at −80° C. until using.
(Binding Test on [^3H] Ketanserin)
Next, it was filtered through a glass filter with the use of a cell harvester. After washing the glass filter with 50 mM Tris hydrochloride (pH 7.4), the radioactivity of the receptor was measured with a liquid scintillation counter. The binding detected in the presence of 1 μM of methysergide was referred to as the nonspecific binding.
IC50 was calculated by the probit method, while Ki was determined in accordance with the following formula:
wherein c represents the concentration of the radioisotope-labeled compound, and Kd represents the dissociation constant of the radioisotope-labeled compound with respect to the receptor determined by Scatchard's analysis.

Consider `CNC(=O)Cc1ccc2c(c1)N(C1CCN(CCc3ccc(F)cc3)CC1)CC2` [Example 148, 1-[1-(4-fluorophenethyl)piperidin-4-yl]-6-(methylcarbamoylmethyl)indoline], for which the results for the pKi on serotonin 2 receptor and at serotonin 1A receptor were 9.60 and 8.02, respectively.

For `c1ccc2c(c1)CCN2C1CCN(CCc2ccc3c(c2)OCO3)CC1` [Example 46, 1-{1-[3,4-(methylenedioxy)phenethyl]piperidin-4-yl}indoline], the pKi on serotonin 2 receptor was 8.38; on serotonin 1A receptor, 8.96.

With `O=C1CNC(=O)N1Cc1ccc2c(c1)N(C1CCN(CCc3ccc(F)cc3)CC1)CC2` [Example 207, 1-[1-(4-fluorophenethyl)piperidin-4-yl]-6-(2,4-imidazolidinedion-3-yl)methylindoline], the pKi on serotonin 2 receptor is 8.57; on serotonin 1A receptor, 9.09.

With `O=C(c1ccc2c(c1)N(C1CCN(CCc3ccc(F)cc3)CC1)CC2)n1cccc1` [Example 126, 1-[1-(4-fluorophenethyl)piperidin-4-yl]-6-(1-pyrrolylcarbonyl)indoline], the pKi at serotonin 2 receptor is 6.89; on serotonin 1A receptor, 8.91.

In the case of `O=C(NCc1ccc2c(c1)N(C1CCN(CCc3ccc(F)cc3)CC1)CC2)C1CC1` [Example 159, 1-[1-(4-fluorophenethyl)piperidin-4-yl]-6-cyclopropanecarboxamindomethylindoline], the pKi was 9.12 on serotonin 2 receptor and 8.25 on serotonin 1A receptor.

With `CC(C)(C)NC(=O)Cc1ccc2c(c1)N(C1CCN(CCc3ccc(F)cc3)CC1)CC2` [Example 153, 1-[1-(4-fluorophenethyl)piperidin-4-yl]-6-(t-butylcarbamoylmethyl)indoline], the pKi on serotonin 2 receptor is 8.37; at serotonin 1A receptor it was 7.81.

As for `Fc1ccc(CCN2CCC(N3CCc4ccc(Cc5nccs5)cc43)CC2)cc1` [Example 214, 1-[1-(4-fluorophenethyl)-piperidin-4-yl]-6-(2-thiazolyl)methylindoline], the pKi on serotonin 2 receptor was 9.05; at serotonin 1A receptor, 8.46.

On to `COc1ccc(CCN2CCC(N3CCc4ccccc43)CC2)s1` [Example 64], for which the pKi at serotonin 2 receptor is 7.85; at serotonin 1A receptor it was 7.83.

In the case of `Fc1ccc(CCN2CCC(N3CCc4ccncc43)CC2)cc1` [Example 264, 1-[1-(4-fluorophenethyl)piperidin-4-yl]-6-azaindoline], the pKi was 6.86 at serotonin 2 receptor and 7.95 on serotonin 1A receptor.

For `Fc1ccc(CCN2CCC(N3CCc4cc5c(cc43)OCO5)CC2)cc1` [Example 284, 1-[1-(4-fluorophenethyl)piperidin-4-yl]-5,6-methylenedioxyindoline], the figures for the pKi on serotonin 2 receptor and at serotonin 1A receptor were 8.33 and 8.35, respectively.

On to `CC(=O)NCc1ccc2c(c1)N(C1CCN(CCc3ccc(F)cc3F)CC1)CC2` [Example 224, 1-[1-(2,4-difluorophenethyl)piperidin-4-yl]-6-acetamidomethylindoline], for which the pKi at serotonin 2 receptor was 8.29; on serotonin 1A receptor it was 8.51.

Turning to `COc1ccc(CCN2CCC(N3CCc4ccc(OC)cc43)CC2)cc1` [Example 228, 1-[1-(4-methoxyphenethyl)piperidin-4-yl]-6-methoxyindoline], the pKi on serotonin 2 receptor is less than 6.70; at serotonin 1A receptor, 9.47.

For `CCN1CCC(N2CC(Cc3ccc(OC)cc3)c3ccccc32)CC1` (centres unmarked) [Example 242, 1-(1-ethylpiperidin-4-yl)-3-(4-methoxybenzyl)indoline], the pKi on serotonin 2 receptor was 8.64; on serotonin 1A receptor it was less than 6.70.

For `O=S(=O)(Nc1ccc2c(c1)N(C1CCN(CCc3ccc(F)cc3)CC1)CC2)c1ccc(F)cc1` [Example 119, 1-[1-(4-fluorophenethyl)piperidin-4-yl]-6-(4-fluorobenzenesulfonylamino)indoline], the figures for the pKi at serotonin 2 receptor and on serotonin 1A receptor were 7.34 and 9.70, respectively.

For `COc1ccc(CC(C)N2CCC(N3CCc4ccccc43)CC2)cc1OC` (centres unmarked) [Example 76, 1-{1-[1-(3,4-dimethoxyphenyl)propan-2-yl]piperidin-4-yl}indoline], the results for the pKi at serotonin 2 receptor and on serotonin 1A receptor were less than 6.70 and 7.36, respectively.

For the molecule `CCN1CCN([C@@H]2c3ccccc3CC2N(C)Cc2ccc(F)cc2)CC1` (some centres unmarked) [Example 254], the pKi is 6.75 at serotonin 2 receptor and less than 6.70 at serotonin 1A receptor.

For the molecule `O=S(=O)(NCCN1CCC(N2CCc3ccccc32)CC1)c1ccc(Cl)cc1` [Example 47, 1-{1-[2-(4-chlorophenylsulfonylamino)ethyl]piperidin-4-yl}indoline], the pKi on serotonin 2 receptor was 7.03; at serotonin 1A receptor, 6.69.

For the molecule `O=C1CCCN1Cc1ccc2c(c1)N(C1CCN(CCc3ccc(F)cc3)CC1)CC2` [Example 202, 1-[1-(4-fluorophenethyl)piperidin-4-yl]-6-(2-pyrrolidon-1-yl)methylindoline], the pKi on serotonin 2 receptor was 8.29; at serotonin 1A receptor, 8.59.

Turning to `O=C(c1ccc2c(c1)N(C1CCN(CCc3ccc(F)cc3)CC1)CC2)c1nccs1` [Example 194, 1-[1-(4-fluorophenethyl)piperidin-4-yl]-6-(2-thiazolylcarbonyl)indoline], the values for the pKi on serotonin 2 receptor and on serotonin 1A receptor were less than 6.70 and 8.34, respectively.

Consider `OC(c1cncnc1)c1ccc2c(c1)N(C1CCN(CCc3ccc(F)cc3)CC1)CC2` (centres unmarked) [Example 198, 1-[1-(4-fluorophenethyl)piperidin-4-yl]-6-[1-hydroxy-1-(pyrimidin-5-yl)methyl]indoline], for which the figures for the pKi on serotonin 2 receptor and at serotonin 1A receptor were 8.66 and 7.86, respectively.

Take `O=Cc1ccc2c(c1)N(C1CCN(CCc3ccc(F)cc3)CC1)CC2` [Example 130, 1-[1-(4-fluorophenethyl)piperidin-4-yl]-6-formylindoline]: the pKi was 8.04 at serotonin 2 receptor and 9.31 on serotonin 1A receptor.

Take `Fc1ccc(CCN2CCC(n3ccc4ccccc43)CC2)c(F)n1` [Example 332, 1-[1-(2,6-difluoro-3-pyridylethyl)piperidin-4-yl]indole]: the pKi was 7.79 on serotonin 2 receptor and 8.65 at serotonin 1A receptor.

Turning to `Fc1cccc(CCN2CCC(N3CCc4ccccc43)CC2)c1` [Example 8, 1-[1-(3-fluorophenethyl)piperidin-4-yl]indoline], the pKi is 7.57 on serotonin 2 receptor and 7.87 on serotonin 1A receptor.

Consider `CCNc1ccc(CCN2CCC(N3CCc4ccccc43)CC2)cc1` [Example 33, 1-[1-(4-ethylaminophenethyl)piperidin-4-yl]indoline], for which the pKi on serotonin 2 receptor is 7.61; at serotonin 1A receptor, 8.24.

`c1csc(CCN2CCC(N3CCc4ccccc43)CC2)c1` [Example 58, 1-{1-[2-(2-thienyl)ethyl]piperidin-4-yl}indoline]: the values for the pKi on serotonin 2 receptor and on serotonin 1A receptor were 7.46 and 7.58, respectively.

For the molecule `CC(=O)NCc1ccc(CCN2CCC(n3ccc4ccccc43)CC2)cc1` [Example 288, 1-[1-(4-acetamidomethylphenethyl)piperidin-4-yl]indole], the pKi was 10.00 on serotonin 2 receptor and 9.70 on serotonin 1A receptor.

For the molecule `NC(=S)Cc1ccc2c(c1)N(C1CCN(CCc3ccc(F)cc3)CC1)CC2` [Example 129, 1-[1-(4-fluorophenethyl)piperidin-4-yl]-6-thiocarbamoylmethylindoline], the pKi was 9.19 at serotonin 2 receptor and 9.02 on serotonin 1A receptor.

As to `Fc1ccccc1CCN1CCC(N2CCc3ccccc32)CC1` [Example 7, 1-[1-(2-fluorophenethyl)piperidin-4-yl]indoline], the pKi on serotonin 2 receptor was 7.89; on serotonin 1A receptor it was 7.46.

Turning to `CN(c1ccc2c(c1)N(C1CCN(CCc3ccc(F)cc3)CC1)CC2)S(C)(=O)=O` [Example 120], the pKi on serotonin 2 receptor is 7.95; on serotonin 1A receptor, 9.00.

As to `Fc1ccc(CCN2CCC(C3CCc4cccnc43)CC2)cc1` (centres unmarked) [Example 257, 7-[1-(4-fluorophenethyl)piperidin-4-yl]-5,6-dihydro-7H-pyrindine], the pKi on serotonin 2 receptor is 9.21; on serotonin 1A receptor, 8.55.

In the case of `Fc1ccc(CCN2CCC(N3CCc4ccc(-c5ccccn5)cc43)CC2)cc1` [Example 171, 1-[1-(4-fluorophenethyl)piperidin-4-yl]-6-(2-pyridyl)indoline], the values for the pKi on serotonin 2 receptor and on serotonin 1A receptor were 6.75 and 9.41, respectively.

With `Fc1ccc(N2CCC(N3CCc4ccccc43)CC2)cc1` [Example 1, 1-[1-(4-fluorophenyl)piperidin-4-yl]indoline], the pKi on serotonin 2 receptor is less than 6.70; on serotonin 1A receptor it was 6.20.

As to `Brc1cnn(CCN2CCC(N3CCc4ccccc43)CC2)c1` [Example 68, 1-{1-[2-(4-bromopyrazol-1-yl)ethyl]piperidin-4-yl}indoline], the pKi is 7.40 on serotonin 2 receptor and 7.33 on serotonin 1A receptor.

For the molecule `CCC(O)c1ccc2c(c1)N(C1CCN(CCc3ccc(F)cc3)CC1)CC2` (centres unmarked) [Example 138, 1-[1-(4-fluorophenethyl)piperidin-4-yl]-6-(1-hydroxypropyl)indoline], the pKi on serotonin 2 receptor was 8.23; on serotonin 1A receptor, 8.70.

`Oc1ccc(CCN2CCC(N3CCc4ccccc43)CC2)cc1` [Example 20, 1-[1-(4-hydroxyphenethyl)piperidin-4-yl]indoline]: the pKi on serotonin 2 receptor was 9.66; at serotonin 1A receptor, 7.82.

With `CC(=O)NCc1ccc2ccn(C3CCN(CCc4ccc(F)cc4F)CC3)c2c1` [Example 357, 1-[1-(2,4-difluorophenethyl)piperidin-4-yl]-6-acetamidomethylindole], the figures for the pKi at serotonin 2 receptor and at serotonin 1A receptor were 8.89 and 9.42, respectively.

Regarding `CS(=O)(=O)Nc1cc2c(cc1Cl)CCN2C1CCN(CCc2ccc(F)cc2)CC1` [Example 218, 1-[1-(4-fluorophenethyl)piperidin-4-yl]-5-chloro-6-methanesulfonylaminoindoline], the pKi at serotonin 2 receptor is 7.93; on serotonin 1A receptor it was 8.35.
